In patent US6777193B1, “Methods for diagnostic and/or treatment of antiphospholipids antibodies-related diseases, and devices” (Escuela Nacional de Ciencias Biologicas, del Instituto …, priority 2000, dated 2004):

How the values were obtained:
[1] = system: egg-yolk phosphatidylcholine:phosphatidate (2:1 molar ratio) liposomes; test: Stabilization of liposomal membranes (liposomal cytofluorometry, SSC/FSC); conditions: without chlorpromazine
[2] = system: egg-yolk phosphatidylcholine:phosphatidate (2:1 molar ratio) liposomes; test: Lipidic particles reversion in liposomes; conditions: chlorpromazine 0.2 mM for 30 min before stabilizer drug
Method: (§1) Examples 7 and 7A were repeated using as antigens egg-yolk phosphatidylcholine:phosphatidate (2:1 molar ratio) liposomes, in Tris-NaCl buffer (10 mM, 1 mM) pH 7, and containing 0.1 μmol of phosphatidate, or Ag4 mouse myeloma cells. […] Stabilizer drugs were used at the concentrations used in Example 7A.

[3] = system: egg-yolk phosphatidylcholine:phosphatidate (2:1 molar ratio) liposomes; test: Stabilization of liposomal membranes (liposomal cytofluorometry, SSC/FSC); conditions: for concentration effective in stabilizing lipidic bilayers: blocks lipidic particles induced by chlorpromazine at 0.2 mM and 0.6 mM; for lipidic particles formation and liposomal aggregation, simultaneous incubation with chlorpromazine: liposomes incubated simultaneously with chlorpromazine and stabilizer drug; for reaction of stabilized liposomes with H308 monoclonal antibody: liposomes incubated with chlorpromazine and stabilizer drug
Method: In relation to the stabilization of membranes with drugs that avoid the formation of lipidic particles in liposomal model membranes or in cellular membranes, which in turn avoid the subsequent union of anti-lipidic particles antibodies, the studies were carried out with liposomal or cellular antigens using the cytofluorometry method. In a favorite modality this method includes the following steps:
A) A first step of incubation, in which the antigen suspension, liposomes or cells, are incubated with a drug that stabilizes its lipidic bilayers, this drug being used at a concentration of 0.1 up to 100 mM, the obtained mixture is incubated for 0.25 to 2 h at a temperature between 35 and 40° C.
These studies were carried out with a modification in the liposomal cytofluorometry method with liposomes made from egg-yolk phosphatidylcholine:phosphatidate (2:1 molar ratio) in Tris-NaCl buffer (10 mM, 1 mM) pH 7, containing 0.1 μmol of phosphatidate, and treated with 0.2 mM chlorpromazine to induce lipidic particles formation, as antigens.
Liposomal preparations were incubated for 30 min at room temperature and were used as antigens. The reaction of these stabilized liposomes with H308 monoclonal antibody was analyzed by the liposomal cytofluorometry method as was described in Example 2A, in a FACSCalibur Flow Cytometer equipped with a single 488 nm argon laser beam (Beckton Dickinson).
Relative size and/or liposomal aggregation were analyzed in the FSC channel and the granularity or liposomal bilayers complexity in the SSC channel. Analysis of 10,000 liposomes was made in a logarithmic mode with the following detectors: FSC in E00, with a detector compensation threshold of 52 V and SSC of 401 V (Baeza et al., op. cit., 1995). The obtained data were analyzed with the Cellquest program (Beckton Dickinson).

[4] = system: Ag4 mouse myeloma cells; test: Stabilization of cellular membranes (cytofluorometry); type: cell-based; conditions: chlorpromazine 0.2 mM plus stabilizer drug; for development of lipidic particles in Ag4 cellular membranes: 30 min
Method: The reaction of these stabilized Ag4 mouse myeloma cells with […] monoclonal antibody was analyzed by the cytofluorometry method in a FACSCalibur Flow Cytometer equipped with a single […] argon laser beam (Beckton Dickinson). Relative size and/or Ag4 mouse myeloma cells aggregation were analyzed in the FSC channel and the granularity or cellular membranes complexity in the SSC channel. Analysis of 10,000 […] mouse myeloma cells was made with the following detectors: FSC in […] in lineal mode with an amplifier gain of 2 V, with a detector compensation threshold of 52 V, and SSC of 250 V. The obtained data were analyzed with the Cellquest program (Beckton Dickinson).

[5] = system: BALB/c female mice; test: Treatment of the pathology induced by H308 monoclonal antibody in mice; type: in vivo, mouse; conditions: for therapeutically effective quantity: of body weight, BALB/c female mice given H308
Method: H308 monoclonal antibody was administered by intraperitoneal injection of 1 μg each week during two months to BALB/c female mice, and simultaneously the glycerolphosphorylcholine hapten was administered at 2.5 mg/Kg, of body weight, doses by intravenous injection each 24 hs, for 2-months.
Spermidine was administered, as chlorhydrate, in a dose of 1 mg/Kg, of body weight, by intraperitoneal injection each 24 hs, during two months.

[6] = system: Ag4 mouse myeloma cells; test: Lipidic particles reversion in cells; type: cell-based; conditions: chlorpromazine 0.2 mM for 30 min before stabilizer drug
Method: as §1

[7] = system: BALB/c female mice; test: Induction of anti-lipidic particles antibodies and pathology in immunized/treated mice; type: in vivo, mouse; conditions: for pathology developed in BALB/c female mice: after immunization or treatment as in Examples 4A-4C; for immunized BALB/c female mice that produced anti-lipidic particles antibodies: intramuscular, chlorpromazine 3 mg/Kg or procainamide 10 mg/Kg each 24 hs for 2-months
Method: Ten, 2-months age, BALB/c female mice were immunized by intrasplenic injection of 100 μg of egg-yolk phosphatidylcholine:phosphatidate liposomes (2:1 molar ratio) in Tris-NaCl buffer (10 mM, 1 mM) pH 7, containing 0.1 μmol of phosphatidate, and treated with MnCl2 5 mM to induce lipidic particles formation. Intrasplenic immunization was repeated 2-weeks later by the method described by Nilsson et al. (op. cit. 1987). Additionally, BALB/c female mice were intraperitoneally injected with the same liposomes dose 2-weeks later, then they were boosted 4-times at 2-weeks intervals.
After seven days of the last immunization female mice were bled from the orbital sinus to analyze the presence of anti-lipidic particles antibodies in the obtained sera. Using this immunization procedure, 60% of the immunized BALB/c female mice produced anti-lipidic particles antibodies.
Ten, 2-months age, BALB/c female mice were immunized by intrasplenic injection of 100 μg of egg-yolk phosphatidylcholine:phosphatidate liposomes (2:1 molar ratio) in Tris-NaCl buffer (10 mM, 1 mM) pH 7, containing 0.1 μmol of phosphatidate, and treated with the lipidic particles inducer drug procainamide at a concentration of 8 mM. Immunization was carried out as it was indicated in Example 4. After seven days of the last immunization female mice were bled from the orbital sinus to analyze the presence of anti-lipidic particles antibodies in the obtained sera. Using this immunization procedure, 70% of the immunized BALB/c female mice produced anti-lipidic particles antibodies.
Ten, 2-months age, BALB/c female mice were immunized by intramuscular injection of the lipidic particles inducer drugs chlorpromazine or procainamide, using 3 mg/Kg, of body weight, for chlorpromazine and 10 mg/Kg, of body weight, for procainamide, each 24 hs, for 2-months. Drug doses were similar to those that are administered in the medical treatment of humans; in psychotic and maniacs dysfunctions for chlorpromazine and those that were used for the treatment of cardiac arrhythmias for procainamide.
After seven days of the last intramuscular injection female mice were bled from the orbital sinus to analyze the presence of anti-lipidic particles antibodies in the obtained sera. Using this immunization procedure, 50% of the immunized BALB/c female mice produced anti-lipidic particles antibodies.
Ten, 2-months age, BALB/c female mice were immunized by intraperitoneal injection of 1 μg of anti-lipidic particles H308 monoclonal antibody, each week, for 2-months. After seven days of the last intraperitoneal injection female mice were bled from the orbital sinus to analyze the presence of anti-lipidic particles antibodies in the obtained sera. […]

[8] = system: H308 monoclonal antibody; test: Inhibition of H308 monoclonal antibody by phosphorylated haptens (liposomal-ELISA); type: binding, mouse; conditions: for inhibition of H308 monoclonal antibody reaction with lipidic particles in liposomes: hapten 0.2 to 1.0 μmol
Method: Studies on inhibition of anti-lipidic particles antibodies were carried out using liposomes as antigens and the antigen-antibody reaction was analyzed by the liposomal-ELISA method, which includes the following steps:
A) A first step of addition and incubation, in which an effective quantity of an antigen suspension is added to each one of the wells of the ELISA microtiter plate. This microtiter plate is selected among those with a high lipidic antigens binding property and said microtiter plate is incubated between 25 to 30° C. for 0.25 to 2 h.
B) A second step of addition and incubation, in which an effective quantity of a blocking solution is added to each one of the wells of the ELISA microtiter plate with a high lipidic antigens binding property, and said microtiter plate being incubated at a temperature between 25 to 30° C. for 0.25 to 2 h.
C) A step of elimination of blocking solution, preferably by suction, avoiding that microtiter plate becomes dry when blocking solution is eliminated, because liposomal antigens can be damaged.
D) A step of inhibition of the antibody porter, in which the antibody porter is incubated with a chemical substance, or hapten, that will inhibit the active site that recognizes the antigen in the antibody porter.
E) A third step of addition and incubation, in which an effective quantity of the antibody porter inhibited by the hapten was quickly added, to avoid that microtiter plate becomes dry, to each one of the wells using an antibody porter dilution from 1:5 to 1:1000 into blocking solution. This microtiter plate being incubated for 0.25 to 2 h at a temperature between 25 to 30° C.
F) A first step of washing, in which the microtiter plate is washed with the blocking solution, preferably repeating 4-times and avoiding that microtiter plate becomes dry when eliminating the blocking solution.
G) A fourth step of addition and incubation, in which an effective quantity of a second antibody is added to each one of the wells of microtiter plate. This plate is incubated in the darkness for 0.25 to 2 h at a temperature between 25 to 30° C. Second antibody is selected preferably among antibodies from a different specie to that of the antibody porter and they can be anti-Fc of human IgG, IgA and IgM or of the animal in study, or antibodies anti-Fc of IgM or of IgG depending on the nature of the monoclonal antibody when this is the antibody porter. Second antibody is used in a final dilution into blocking solution between […] and 1:3500 and it is conjugated to an enzyme preferably to peroxidase.
H) A second step of washing, in which the microtiter plate is washed with the blocking solution, preferably repeating 4-times and avoiding that microtiter plate becomes dry when eliminating the blocking solution.
I) A fifth step of addition and incubation, in which an effective quantity of the peroxidase sustrates is added to each one of the wells and this microtiter plate is incubated for 0.1 to 0.5 h at a temperature between .35 and 40° C., stopping the peroxidase reaction by adding an effective quantity of sulfuric acid.
J) A step of analysis, in which microtiter plate is analyzed using a reading device for ELISA plates, preferably at 492 nm.
In a specific embodiment, the hapten solution is obtained dissolving hapten in a buffer solution at pH between 7.0 and 7.4, in a relationship from 0.1 to 10 mmoles of hapten per liter of buffer solution.
Costar microtiter plates, with 96 flat-bottom wells with a high lipidic antigens binding property (Costar Co. Cambrige, USA) were coated by the addition to each one of the wells of 100 μl of liposomes made from egg-yolk phosphatidylcholine:phosphatidate (2:1 molar ratio) in Tris-NaCl buffer (10 mM, 1 mM) pH 7, containing 0.1 μmol of phosphatidate, and treated with 5 mM CaCl2 to induce lipidic particles formation. Microtiter plates were incubated at room temperature for 1 h and they were blocked for 1 h at room temperature in a similar way as was described in Example 1. […]

SMILES: CCN(CC)CCCC(C)Nc1ccnc2cc(Cl)ccc12 (stereo not drawn) [chloroquine]
- change in liposomal aggregation and liposomal bilayers complexity, stabilizer drug alone [1]: do not produce any change
- reversion of lipidic particles and liposomal aggregation caused by chlorpromazine [2]: reverted
- concentration effective in stabilizing lipidic bilayers [3]: 0.1 µM
- lipidic particles formation and liposomal aggregation, simultaneous incubation with chlorpromazine [3]: there were not lipidic particles formation neither liposomal aggregation
- reaction of stabilized liposomes with H308 monoclonal antibody [3]: do not react with H308 monoclonal antibody
- reaction of stabilized Ag4 cells with H308 monoclonal antibody [4]: do not react with the H308 monoclonal antibody
- development of lipidic particles in Ag4 cellular membranes [4]: do not develop lipidic particles with chlorpromazine
- therapeutically effective quantity [5]: 2.5 mg/kg
- reversion of lipidic particles and cellular aggregation caused by chlorpromazine [6]: reverted

SMILES: CN(C)CCCN1c2ccccc2Sc2ccc(Cl)cc21 [chlorpromazine]
- pathology developed in BALB/c female mice [7]: development of a pathology similar to the human antiphospholipid syndrome secondary to systemic lupus erythematosus
- immunized BALB/c female mice that produced anti-lipidic particles antibodies [7]: 50%
- increase in SSC and FSC values (lipidic particles and liposomal aggregation) ([3]; 0.2 mM): 100 fold
- SSC values ([3]; graph B, FIG. 16, presence of lipidic particles): higher than 1000 units

SMILES: N[C@@H](COP(=O)(O)OCC(O)CO)C(=O)O (stereo partly drawn) [glycerolphosphorylserine]
- inhibition of H308 monoclonal antibody reaction with lipidic particles in liposomes [8]: do not cause any inhibition

SMILES: C[N+](C)(C)CCOP(=O)(O)O [phosphorylcholine]
- absorbance at 492 nm of H308 immunoreaction ([8]; 0.6 μmoles of hapten): 0.06
- inhibition in immunoreaction of H308 monoclonal antibody ([8]; 0.6 μmoles of hapten, with regard to reaction in absence of hapten): 82%

SMILES: NCCOP(=O)(O)O [phosphorylethanolamine]
- inhibition of H308 monoclonal antibody reaction with lipidic particles in liposomes [8]: do not cause any inhibition

SMILES: NC(COP(=O)(O)O)C(=O)O (stereo not drawn) [phosphorylserine]
- inhibition of H308 monoclonal antibody reaction with lipidic particles in liposomes [8]: do not cause any inhibition

SMILES: CCN(CC)CCNC(=O)c1ccc(N)cc1 [procainamide]
- pathology developed in BALB/c female mice [7]: development of a pathology similar to the human antiphospholipid syndrome secondary to systemic lupus erythematosus
- immunized BALB/c female mice that produced anti-lipidic particles antibodies [7]: 50%

SMILES: NCCCCNCCCN [spermidine]
- change in liposomal aggregation and liposomal bilayers complexity, stabilizer drug alone [1]: do not produce any change
- reversion of lipidic particles and liposomal aggregation caused by chlorpromazine [2]: reverted
- concentration effective in stabilizing lipidic bilayers [3]: 5 µM
- lipidic particles formation and liposomal aggregation, simultaneous incubation with chlorpromazine [3]: there were not lipidic particles formation neither liposomal aggregation
- reaction of stabilized liposomes with H308 monoclonal antibody [3]: do not react with H308 monoclonal antibody
- reaction of stabilized Ag4 cells with H308 monoclonal antibody [4]: do not react with the H308 monoclonal antibody
- development of lipidic particles in Ag4 cellular membranes [4]: do not develop lipidic particles with chlorpromazine
- development of mice pathology induced by H308 monoclonal antibody ([5]; as chlorhydrate, 1 mg/Kg intraperitoneal each 24 hs, two months): results similar to those described with chloroquine
- therapeutically effective quantity [5]: 1 mg/kg
- reversion of lipidic particles and cellular aggregation caused by chlorpromazine [6]: reverted
